Like-named read-outs stand apart in the source and are kept apart here. Bridge positions count the residues as written; N and C are the ends. Square brackets hold non-standard residues; d marks the D form. Peptide text beside a SMILES is read from it. hArg = N=C(N)NCCCC[C@H](N)C(=O)O; Mpa = O=C(O)CCS
Legend:
[1] = test system: platelet surface activated integrin αIIbβ3; assay: cells; type: cell-based, human
Method: (§1) FIGS. 2A-2D depict a comparison of MC and FFC platforms for measurement of agonist-stimulated integrin αIIbβ3 activation (PAC1) and P-selectin expression (CD62P) on platelets. Citrate-anticoagulated blood from 3 separate healthy donors was treated with vehicle or the indicated concentrations of ADP (A, B) or thrombin receptor activating peptide (TRAP) (C, D); for 30 minutes in the presence of PAC1-FITC or […] antibodies to assess integrin αIIbβ3 activation (A, C) and CD62P-PE or CD62P-172Yb antibodies to assess a-granule secretion (B, D). Samples were fixed in 1% formaldehyde and analyzed by MC or FFC. Data were analyzed using a non-linear fit of log agonist vs. response; variable slope in GraphPad Prism 5. Results are expressed as a percentage of mean metal intensity (MMI; MC readout) or the mean fluorescence intensity (MFI; FFC readout) achieved with 200 μM adenosine diphosphate (ADP) or TRAP, respectively (means±SEM; n=2/3, with n=2 accounting for the linear region of the TRAP dose-response [concentrations 1.5-3.5 μM] and n=3 accounting for all other concentrations [0-1 μM & 5-200 μM]).
(§2) Blood was collected by venipuncture with a 21-gauge butterfly needle into evacuated tubes containing 3.2% sodium citrate. Blood was drawn from healthy volunteers or GT patients who were free from antiplatelet agents and non-steroidal anti-inflammatory drugs for 10 days prior to the donation. The blood draws were performed by the same phlebotomist. Complete blood cell counts were performed in a Sysmex XN-1000 Hematology Analyzer.
(§3) A panel of metal-labeled antibodies directed against platelet antigens of interest was assembled (FIG. 1A). Antibody clones were well-characterized, widely used and purchased from reputable vendors. Platelets in whole blood were reacted with the panel (containing anti-CD9-171Yb, anti-CD29-176Yb, anti-CD31-145Nd, anti-CD36-150Nd, anti-CD42a-155Gd, anti-CD42b-163Dy, anti-CD41-149Sm, anti-CD62P-172Yb, anti-CD61-165Ho, anti-CD63-161Dy, anti-CD107a-166Er, anti-CD154-154Sm, anti-GPVI-152Sm and anti-PAC1-159Tb; see FIG. 1A, Materials, and Table 1 for antibody information) in the presence of vehicle (HT-BSA), TRAP or ADP at the indicated concentrations for 30 minutes (FIG. 1B). Samples were fixed in 1% formaldehyde/HEPES-saline solution containing 125 nM Iridium 191/193 Cell-ID DNA Intercalator for 30 minutes. […] Samples were passed through a 35 μm cell-strainer (Corning Inc, Corning, N.Y.) and analyzed on a Helios Mass Cytometer (Fluidigm Corporation, San Francisco, Calif.; FIG. 1C). […]
(§4) Data were analyzed using GraphPad version 5.0 software (GraphPad Software, La Jolla, Calif.) and are presented as mean±standard error of the mean. […]

[2] = test system: platelet surface P-selectin (CD62P); assay: cells; type: cell-based, human
Method: as §1, §2, §3, §4

[3] = test system: platelets in whole blood; assay: MC panel of 12 additional platelet surface markers during TRAP or ADP stimulation; type: cell-based, human; conditions: 30 minutes; for Platelet surface CD41, CD61, CD63, CD9, CD107a and CD154 / Platelet surface CD42a and CD42b: agonist 0-200 μM; for Surface plasma membrane levels of CD31, CD36, CD29 and GPVI: varying agonist concentrations
Method: Citrate-anticoagulated blood from the same 3 separate healthy donors in FIGS. 2A-2D was simultaneously treated with vehicle or the indicated concentrations of TRAP (A) or ADP (B) for 30 minutes in the presence of a custom platelet-specific, metal-tagged antibody panel. This panel contained antibodies directed against CD41, CD61, CD63, CD9, CD107a, CD154, CD42a, CD42b, CD31, CD36, CD29 and GPVI. Samples were fixed in 1% formaldehyde and analyzed by MC. Data were analyzed using a non-linear fit of log agonist vs. response; variable slope or linear regression in GraphPad Prism 5. Results are expressed as a percentage of the mean metal intensity (MMI) achieved with 200 μM ADP or TRAP (means±SEM; n=2/3, with n=2 accounting for the linear region of the TRAP dose-response [concentrations 1.5-3.5 μM)] and n=3 accounting for all other concentrations [0-1 μM and 5-200 μM]). Statistical analysis: 1-way ANOVA was used in conjunction with a Dunnett multiple comparison test (all results compared to vehicle control) to indicate statistical significance; *P<0.05, **P<0.01 and ***P<0.001. Abbreviations: ADP, adenosine diphosphate; FFC, fluorescence flow cytometry; MC, mass cytometry; TRAP, thrombin receptor activating peptide.
A panel of metal-labeled antibodies directed against platelet antigens of interest was assembled (FIG. 1A). Antibody clones were well-characterized, widely used and purchased from reputable vendors. Platelets in whole blood were reacted with the panel (containing anti-CD9-171Yb, anti-CD29-176Yb, anti-CD31-145Nd, anti-CD36-150Nd, anti-CD42a-155Gd, anti-CD42b-163Dy, anti-CD41-149Sm, anti-CD62P-172Yb, anti-CD61-165Ho, anti-CD63-161Dy, anti-CD107a-166Er, anti-CD154-154Sm, anti-GPVI-152Sm and anti-PAC1-159Tb; see FIG. 1A, Materials, and Table 1 for antibody information) in the presence of vehicle (HT-BSA), TRAP or ADP at the indicated concentrations for 30 minutes (FIG. 1B). Samples were fixed in 1% formaldehyde/HEPES-saline solution containing 125 nM Iridium 191/193 Cell-ID DNA Intercalator for 30 minutes. Cells were washed two times in MilliQ deionized H2O to remove salts and resuspended in 0.5 mL of MilliQ deionized H20 containing EQ Four Element Calibration Beads (1:10 v/v [33,000 beads/mL]). Samples were passed through a 35 μm cell-strainer (Corning Inc, Corning, N.Y.) and analyzed on a Helios Mass Cytometer (Fluidigm Corporation, San Francisco, Calif.; FIG. 1C). Cell events were acquired at 300-500 events per second and >30,000 events were acquired in total. Platelets were gated based on DNA content (DNA-low) and CD41/CD61 expression (see FIG. 8 for the MC platelet gating strategy). High-dimensional analyses of platelet subpopulations were carried out using the visual stochastic neighbor embedding (viSNE) cluster analysis function in CYTOBANK™ software (www.cytobank.org). Experiments were carried out by the same scientist and all reagents were from the same lot.

[4] = test system: platelet surface activated integrin αIIbβ3; assay: cells; type: cell-based, human; remark: listed apart in the source
Method: as §1, §2
(§5) Whole blood FFC analysis of platelet activation was performed as previously described. Three color analysis was performed using two cocktails of fluorescently labeled antibodies: PE-conjugated anti-CD62P, FITC-conjugated PAC1 (directed against the high affinity conformation of integrin αIIbβ3) and PE-Cy5-conjugated anti-CD42b; or PE-conjugated anti-CD41a, FITC-conjugated anti-CD61 and PE-Cy5-conjugated anti-CD42b (see Table 2 for antibody information). Citrate-anticoagulated whole blood was treated with vehicle, TRAP or ADP at the indicated concentrations in the presence of the appropriate fluorescently labeled antibody cocktail for 30 minutes at ambient temperature. Samples were fixed in 1% formaldehyde/HEPES-saline buffer for 30 minutes prior to analysis in a FACSCalibur flow cytometer (BD Biosciences, San Jose, Calif.). Platelets were gated based on forward light scatter, side light scatter and CD42b expression (see FIG. 8 for FFC platelet gating strategy). A total of 15,000 platelet events per sample were collected. […]
as §4

[5] = test system: platelet surface P-selectin (CD62P); assay: cells; type: cell-based, human; remark: listed apart in the source
Method: as §1, §2, §5, §4

[6] = target: T1, activated integrin αIIbβ3 (Homo sapiens, UniProt P05106+P08514); assay: Specificity of in-house metal-tagged PAC1 for integrin αIIbβ3 (agonist stimulation, eptifibatide blockade) by MC; type: cell-based; conditions: whole blood; for Platelet surface activated αIIbβ3 expression compared with unstimulated controls: 200 μM agonist, PAC1-159Tb
T1 construct: endogenous in cells; host or cells: platelets in citrate-anticoagulated human whole blood
T1 sequence (P08514 32-887 limits assumed): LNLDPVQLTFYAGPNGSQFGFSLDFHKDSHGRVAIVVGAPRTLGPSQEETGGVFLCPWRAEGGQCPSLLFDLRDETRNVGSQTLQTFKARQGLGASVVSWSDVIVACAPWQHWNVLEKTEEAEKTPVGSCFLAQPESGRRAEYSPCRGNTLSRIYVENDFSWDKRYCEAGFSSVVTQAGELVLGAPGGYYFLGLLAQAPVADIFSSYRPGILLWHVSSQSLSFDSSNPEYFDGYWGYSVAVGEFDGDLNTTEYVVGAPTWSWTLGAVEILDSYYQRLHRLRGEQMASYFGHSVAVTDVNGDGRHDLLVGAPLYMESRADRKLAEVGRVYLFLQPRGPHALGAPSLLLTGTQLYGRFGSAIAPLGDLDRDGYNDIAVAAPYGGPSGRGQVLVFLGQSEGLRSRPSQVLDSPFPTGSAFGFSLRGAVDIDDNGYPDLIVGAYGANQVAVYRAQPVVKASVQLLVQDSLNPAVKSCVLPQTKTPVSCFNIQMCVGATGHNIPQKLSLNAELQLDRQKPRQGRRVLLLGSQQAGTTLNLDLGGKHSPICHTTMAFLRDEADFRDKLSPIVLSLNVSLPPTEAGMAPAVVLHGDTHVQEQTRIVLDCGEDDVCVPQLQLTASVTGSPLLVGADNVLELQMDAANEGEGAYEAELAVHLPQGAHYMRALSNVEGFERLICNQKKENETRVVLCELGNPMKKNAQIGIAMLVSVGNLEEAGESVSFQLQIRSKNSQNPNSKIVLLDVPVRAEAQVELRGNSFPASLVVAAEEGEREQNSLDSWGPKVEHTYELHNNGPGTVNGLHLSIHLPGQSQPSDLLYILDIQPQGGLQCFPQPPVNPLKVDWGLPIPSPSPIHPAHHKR
T1 sequence (P08514 891-1039 limits assumed): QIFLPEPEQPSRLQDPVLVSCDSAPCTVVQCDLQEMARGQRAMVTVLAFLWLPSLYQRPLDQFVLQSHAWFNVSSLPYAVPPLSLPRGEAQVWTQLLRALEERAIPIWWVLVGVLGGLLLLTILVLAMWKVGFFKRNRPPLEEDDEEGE
T1 sequence (P05106 27-788): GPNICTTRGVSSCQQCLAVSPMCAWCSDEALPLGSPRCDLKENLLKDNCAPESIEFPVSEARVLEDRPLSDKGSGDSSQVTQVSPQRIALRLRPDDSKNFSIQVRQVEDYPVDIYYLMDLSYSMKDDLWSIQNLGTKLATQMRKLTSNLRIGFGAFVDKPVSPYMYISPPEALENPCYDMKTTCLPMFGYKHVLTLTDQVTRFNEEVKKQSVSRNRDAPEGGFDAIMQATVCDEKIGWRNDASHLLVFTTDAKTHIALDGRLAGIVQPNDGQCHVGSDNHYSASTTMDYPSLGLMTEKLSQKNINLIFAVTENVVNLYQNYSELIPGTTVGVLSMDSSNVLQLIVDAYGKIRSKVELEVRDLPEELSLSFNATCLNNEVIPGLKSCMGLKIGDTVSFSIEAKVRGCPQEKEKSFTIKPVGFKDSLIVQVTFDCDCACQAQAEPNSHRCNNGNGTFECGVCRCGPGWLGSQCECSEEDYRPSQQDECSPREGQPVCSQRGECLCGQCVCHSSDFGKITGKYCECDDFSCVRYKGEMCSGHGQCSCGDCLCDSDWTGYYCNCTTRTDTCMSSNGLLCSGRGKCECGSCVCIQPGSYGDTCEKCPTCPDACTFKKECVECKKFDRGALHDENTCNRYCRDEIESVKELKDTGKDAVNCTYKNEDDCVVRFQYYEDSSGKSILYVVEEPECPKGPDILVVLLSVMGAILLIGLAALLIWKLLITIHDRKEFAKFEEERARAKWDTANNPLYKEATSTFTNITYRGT
Excerpt: FIG. 6. depicts measuring the specificity of in-house metal-tagged PAC1 for integrin αIIbβ3. […] Samples were fixed in 1% formaldehyde and analyzed by MC. […] Statistical analysis: 1-way ANOVA was used in conjunction with a Bonferroni post-test (with all results compared to the MMI achieved with agonist stimulation) to indicate statistical significance; **P<0.01 and ***P<0.001.
as §3
To compare the MC and FFC platforms for platelet analysis a novel metal-tagged MC antibody panel was designed to target well-established surface markers on platelets (FIG. 1A, Table 1) including platelet surface P-selectin (monitored with anti-CD62P-172Yb) and platelet surface activated integrin αIIbβ3 (monitored with the activation-dependent monoclonal antibody PAC1, labeled in-house with 159Tb). The specificity of PAC1-159Tb for activated αIIbβ3 was assessed by its dependence on platelet activation for binding and by its blockade by the αIIbβ3 inhibitor, eptifibatide (FIG. 6A-6B).

| Platelet surface activated αIIbβ3 expression compared with unstimulated controls [6] | EC50 [1] | EC50 [2] | EC50 [4] | EC50 [5] | Blockade of anti-PAC1-159Tb binding to activated integrin αIIbβ3 ([6]; eptifibatide 2.5 μg/mL, following TRAP/ADP (200 μM) stimulation) | Compound | EC50 ([1]; Homo sapiens, Platelet, 0.5 h, MC, anti-PAC1-159Tb, citrate whole blood of healthy donors, 30 minutes, read-out: EC50 for agonist-induced platelet surface activated αIIbβ3) | EC50 ([2]; Homo sapiens, Platelet, 0.5 h, MC, CD62P-172Yb, citrate whole blood of healthy donors, 30 minutes, read-out: EC50 for agonist-induced platelet surface P-selectin expression) | Platelet surface CD41, CD61, CD63, CD9, CD107a and CD154 [3] | Platelet surface CD42a and CD42b [3] | Surface plasma membrane levels of CD31, CD36, CD29 and GPVI [3] | EC50 ([4]; Homo sapiens, Platelet, 0.5 h, FFC, anti-PAC1-FITC, citrate whole blood of healthy donors, 30 minutes, read-out: EC50 for agonist-induced platelet surface activated αIIbβ3) | EC50 ([5]; Homo sapiens, Platelet, 0.5 h, FFC, CD62P-PE, citrate whole blood of healthy donors, 30 minutes, read-out: EC50 for agonist-induced platelet surface P-selectin expression) |
| --- | --- | --- | --- | --- | --- | --- | --- | --- | --- | --- | --- | --- | --- |
| significantly elevated | – | – | – | – | – | Nc1ncnc2c1ncn2[C@@H]1O[C@H](COP(=O)(O)OP(=O)(O)O)[C@@H](O)[C@H]1O [ADP, Adenosine 5′-diphosphate] | 0.8 µM | 1.3 µM | elevated in a dose-dependent manner | stayed constant | remained constant | 0.6 µM | 1.2 µM |
| significantly elevated | 3.7 µM | 3.4 µM | 2.1 µM | 2.3 µM | – | CC(C)C[C@H](NC(=O)[C@H](CC(C)C)NC(=O)[C@H](Cc1ccccc1)NC(=O)[C@@H](N)CO)C(=O)N[C@@H](CCCNC(=N)N)C(=O)N[C@@H](CC(N)=O)C(N)=O [TRAP, SFLLRN-NH2] | – | – | elevated in a dose-dependent manner | trend to be dose-dependently decreased | remained constant | – | – |
| – | – | – | – | – | completely blocked | N=C(N)NCCCC[C@@H]1NC(=O)CCSSC[C@@H](C(N)=O)NC(=O)[C@@H]2CCCN2C(=O)[C@H](Cc2c[nH]c3ccccc23)NC(=O)[C@H](CC(=O)O)NC(=O)CNC1=O [eptifibatide] ([Mpa][hArg]GDWPC-NH2; disulfide 1-7) | – | – | – | – | – | – | – |
